Reference: ChEMBL document CHEMBL1201862, “PubChem BioAssay data set” (2004)
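Compound exposure: 48 hours, 5 concentrations, 96-well plates. GI50: concentration for 50% inhibition of growth.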 Activity calls are given as the source filed them. No stated cut-off is given here; in the data, active = GI50 up to about 1.1 µM and inactive = higher.

Assays:
Assay in all cases: NCI-60 cell line screen, 48 h
UACC-62 = system: UACC-62
UACC-257 = system: UACC-257
LOX IMVI = system: LOX IMVI
OVCAR-5 = system: OVCAR-5
MDA-MB-435 = system: MDA-MB-435
SN12C = system: SN12C
SR = system: SR
SK-MEL-28 = system: SK-MEL-28
DU-145 = system: DU-145
Hs-578T = system: Hs-578T
CCRF-CEM = system: CCRF-CEM
U-251 = system: U-251
SNB-19 = system: SNB-19
HOP-92 = system: HOP-92
MDA-N = system: MDA-N
OVCAR-4 = system: OVCAR-4
NCI-H460 = system: NCI-H460
SNB-75 = system: SNB-75
RPMI-8226 = system: RPMI-8226
RXF 393 = system: RXF 393
Malme-3M = system: Malme-3M
NCI-H226 = system: NCI-H226
HCT-15 = system: HCT-15
SF-268 = system: SF-268
HCC 2998 = system: HCC 2998
HCT-116 = system: HCT-116
K562 = system: K562
SK-OV-3 = system: SK-OV-3
M14 = system: M14
UO-31 = system: UO-31
NCI/ADR-RES = system: NCI/ADR-RES
HOP-62 = system: HOP-62
NCI-H522 = system: NCI-H522
MCF7 = system: MCF7
SF-295 = system: SF-295
OVCAR-3 = system: OVCAR-3
ACHN = system: ACHN
OVCAR-8 = system: OVCAR-8
COLO 205 = system: COLO 205
SK-MEL-5 = system: SK-MEL-5
EKVX = system: EKVX
T47D = system: T47D
KM12 = system: KM12
MDA-MB-231 = system: MDA-MB-231
NCI-H23 = system: NCI-H23
SF-539 = system: SF-539
A549 = system: A549
TK-10 = system: TK-10
A498 = system: A498
CAKI-1 = system: CAKI-1
786-0 = system: 786-0
SW-620 = system: SW-620
MOLT-4 = system: MOLT-4
IGROV-1 = system: IGROV-1
PC-3 = system: PC-3
SK-MEL-2 = system: SK-MEL-2
HT-29 = system: HT-29
HL-60 = system: HL-60

Structure (SMILES): Cc1[nH]n(-c2ncc(C#N)c(=O)[nH]2)c(=O)c1CCO
- GI50 (UACC-62): > 100 µM (inactive)
- GI50 (UACC-257): > 100 µM (inactive)
- GI50 (LOX IMVI): > 100 µM (inactive)
- GI50 (OVCAR-5): > 100 µM (inactive)
- GI50 (MDA-MB-435): > 100 µM (inactive)
- GI50 (SN12C): > 100 µM (inactive)
- GI50 (SR): > 100 µM (inactive)
- GI50 (SK-MEL-28): > 100 µM (inactive)
- GI50 (DU-145): > 100 µM (inactive)
- GI50 (Hs-578T): > 100 µM (inactive)
- GI50 (CCRF-CEM): > 100 µM (inactive)
- GI50 (U-251): > 100 µM (inactive)
- GI50 (SNB-19): > 100 µM (inactive)
- GI50 (HOP-92): > 100 µM (inactive)
- GI50 (MDA-N): > 100 µM (inactive)
- GI50 (OVCAR-4): > 100 µM (inactive)
- GI50 (NCI-H460): > 100 µM (inactive)
- GI50 (SNB-75): 16.4 µM (inactive)
- GI50 (RPMI-8226): > 100 µM (inactive)
- GI50 (RXF 393): > 100 µM (inactive)
- GI50 (Malme-3M): > 100 µM (inactive)
- GI50 (NCI-H226): > 100 µM (inactive)
- GI50 (HCT-15): > 100 µM
- GI50 (SF-268): > 100 µM (inactive)
- GI50 (HCC 2998): > 100 µM (inactive)
- GI50 (HCT-116): > 100 µM (inactive)
- GI50 (K562): > 100 µM (inactive)
- GI50 (SK-OV-3): > 100 µM (inactive)
- GI50 (M14): > 100 µM (inactive)
- GI50 (UO-31): > 100 µM (inactive)
- GI50 (NCI/ADR-RES): > 100 µM (inactive)
- GI50 (HOP-62): > 100 µM (inactive)
- GI50 (NCI-H522): > 100 µM (inactive)
- GI50 (MCF7): > 100 µM (inactive)
- GI50 (SF-295): > 100 µM (inactive)
- GI50 (OVCAR-3): > 100 µM (inactive)
- GI50 (ACHN): > 100 µM (inactive)
- GI50 (OVCAR-8): > 100 µM (inactive)
- GI50 (COLO 205): > 100 µM (inactive)
- GI50 (SK-MEL-5): > 100 µM (inactive)
- GI50 (EKVX): > 100 µM (inactive)
- GI50 (T47D): > 100 µM (inactive)
- GI50 (KM12): > 100 µM (inactive)
- GI50 (MDA-MB-231): > 100 µM (inactive)
- GI50 (NCI-H23): > 100 µM (inactive)
- GI50 (SF-539): > 100 µM (inactive)
- GI50 (A549): > 100 µM (inactive)
- GI50 (TK-10): > 100 µM (inactive)
- GI50 (A498): > 100 µM (inactive)
- GI50 (CAKI-1): > 100 µM (inactive)
- GI50 (786-0): > 100 µM (inactive)
- GI50 (SW-620): > 100 µM (inactive)
- GI50 (MOLT-4): 75.5 µM (inactive)
- GI50 (IGROV-1): > 100 µM (inactive)
- GI50 (PC-3): > 100 µM (inactive)
- GI50 (SK-MEL-2): > 100 µM (inactive)
- GI50 (HT-29): > 100 µM (inactive)

Structure (SMILES): OCCN(CCO)c1nc(N2CCCCC2)c2nc(N(CCO)CCO)nc(N3CCCCC3)c2n1 [DIPYRIDAMOLE]
- GI50 (UACC-257): 39.3 µM (inactive)
- GI50 (LOX IMVI): 37 µM (inactive)
- GI50 (OVCAR-5): 90.8 µM (inactive)
- GI50 (MDA-MB-435): 69.7 µM (inactive)
- GI50 (SN12C): 34 µM (inactive)
- GI50 (SR): 3.46 µM (inactive)
- GI50 (HL-60): 15.7 µM (inactive)
- GI50 (SK-MEL-28): 43 µM (inactive)
- GI50 (DU-145): 48.8 µM (inactive)
- GI50 (Hs-578T): 31.8 µM (inactive)
- GI50 (CCRF-CEM): 20 µM (inactive)
- GI50 (HOP-92): 12.1 µM (inactive)
- GI50 (MDA-N): 45.8 µM (inactive)
- GI50 (OVCAR-4): 59.4 µM (inactive)
- GI50 (NCI-H460): 28 µM (inactive)
- GI50 (RPMI-8226): > 10 µM (inactive)
- GI50 (Malme-3M): 20.5 µM (inactive)
- GI50 (NCI-H226): 48.9 µM (inactive)
- GI50 (HCT-15): 31.4 µM
- GI50 (HCC 2998): 16.3 µM (inactive)
- GI50 (HCT-116): 40.3 µM (inactive)
- GI50 (K562): 24.8 µM (inactive)
- GI50 (M14): 55.8 µM (inactive)
- GI50 (UO-31): 33 µM (inactive)
- GI50 (NCI/ADR-RES): 22 µM (inactive)
- GI50 (HOP-62): 29 µM (inactive)
- GI50 (NCI-H522): 17.9 µM (inactive)
- GI50 (MCF7): > 10 µM (inactive)
- GI50 (OVCAR-3): 12.4 µM (inactive)
- GI50 (ACHN): 33.9 µM (inactive)
- GI50 (OVCAR-8): 29.2 µM (inactive)
- GI50 (COLO 205): 41.9 µM (inactive)
- GI50 (SK-MEL-5): 21.6 µM (inactive)
- GI50 (EKVX): 25.6 µM (inactive)
- GI50 (T47D): 35.6 µM (inactive)
- GI50 (KM12): 43 µM (inactive)
- GI50 (MDA-MB-231): 43.3 µM (inactive)
- GI50 (NCI-H23): 65.3 µM (inactive)
- GI50 (A549): 38.5 µM (inactive)
- GI50 (TK-10): 17.1 µM (inactive)
- GI50 (CAKI-1): 45.5 µM (inactive)
- GI50 (786-0): 31.9 µM (inactive)
- GI50 (SW-620): 58.3 µM (inactive)
- GI50 (MOLT-4): 24.4 µM (inactive)
- GI50 (IGROV-1): 66.7 µM (inactive)
- GI50 (PC-3): 33.3 µM (inactive)
- GI50 (SK-MEL-2): 34.6 µM (inactive)
- GI50 (HT-29): 19.5 µM (inactive)

Structure (SMILES): NC(CCCCCCCCCCP(=O)(O)O)C(=O)O (stereo not drawn)
- GI50 (UACC-62): > 100 µM (inactive)
- GI50 (UACC-257): > 100 µM (inactive)
- GI50 (LOX IMVI): > 100 µM (inactive)
- GI50 (OVCAR-5): > 100 µM (inactive)
- GI50 (MDA-MB-435): > 100 µM (inactive)
- GI50 (SN12C): > 100 µM (inactive)
- GI50 (SR): > 100 µM (inactive)
- GI50 (HL-60): > 100 µM (inactive)
- GI50 (SK-MEL-28): > 100 µM (inactive)
- GI50 (DU-145): > 100 µM (inactive)
- GI50 (Hs-578T): > 100 µM (inactive)
- GI50 (CCRF-CEM): > 100 µM (inactive)
- GI50 (U-251): > 100 µM (inactive)
- GI50 (SNB-19): > 100 µM (inactive)
- GI50 (HOP-92): > 100 µM (inactive)
- GI50 (MDA-N): > 100 µM (inactive)
- GI50 (OVCAR-4): > 100 µM (inactive)
- GI50 (NCI-H460): > 100 µM (inactive)
- GI50 (SNB-75): 7.73 µM (inactive)
- GI50 (RPMI-8226): > 100 µM (inactive)
- GI50 (RXF 393): > 100 µM (inactive)
- GI50 (HCT-15): > 100 µM
- GI50 (SF-268): > 10 µM (inactive)
- GI50 (HCC 2998): > 100 µM (inactive)
- GI50 (HCT-116): > 100 µM (inactive)
- GI50 (K562): > 100 µM (inactive)
- GI50 (SK-OV-3): > 100 µM (inactive)
- GI50 (M14): > 100 µM (inactive)
- GI50 (UO-31): > 100 µM (inactive)
- GI50 (NCI/ADR-RES): > 100 µM (inactive)
- GI50 (NCI-H522): 85.5 µM (inactive)
- GI50 (MCF7): > 100 µM (inactive)
- GI50 (SF-295): > 100 µM (inactive)
- GI50 (OVCAR-3): > 100 µM (inactive)
- GI50 (ACHN): > 100 µM (inactive)
- GI50 (OVCAR-8): > 100 µM (inactive)
- GI50 (COLO 205): > 100 µM (inactive)
- GI50 (SK-MEL-5): > 100 µM (inactive)
- GI50 (EKVX): > 100 µM (inactive)
- GI50 (T47D): > 100 µM (inactive)
- GI50 (KM12): > 100 µM (inactive)
- GI50 (MDA-MB-231): > 100 µM (inactive)
- GI50 (NCI-H23): > 100 µM (inactive)
- GI50 (SF-539): > 100 µM (inactive)
- GI50 (A549): > 100 µM (inactive)
- GI50 (TK-10): > 100 µM (inactive)
- GI50 (CAKI-1): 4.23 µM (inactive)
- GI50 (SW-620): > 100 µM (inactive)
- GI50 (MOLT-4): > 100 µM (inactive)
- GI50 (IGROV-1): > 100 µM (inactive)
- GI50 (PC-3): > 100 µM (inactive)
- GI50 (SK-MEL-2): > 100 µM (inactive)
- GI50 (HT-29): > 100 µM (inactive)
